Test results as given in article PMC6631792, “In Vitro and In Vivo Anti-Breast Cancer Activities of Some Newly Synthesized 5-(thiophen-2-yl)thieno-[2,3-d]pyrimidin-4-one Candidates” (Molecules, 2019).
Like-named read-outs stand apart in the source and are kept apart here.

Legend:
[1] = test system: MCF-7 cells; experiment: MTT cytotoxic assay on MCF-7 cells; format: cell-based, Human
Source text: “Human breast cancer cells (MCF-7) and normal non-tumorigenic MCF-10A cells were used throughout the work. Cells were obtained from ATCC, Gaithersburg, MD, USA. Standard MTT assay was used to explore the possible cytotoxic effects of the synthesized compounds [41, 42]. Medium composition, cultivation conditions and assay performance were exactly the same as our previous work. […] After MTT addition, the absorbance of the dissolved formazan crystals was read at 570 nm. The IC50 values were obtained with linear regression equations using Origin® 6.1 software (Origin Lab Corporation, Northampton, MA, USA)”.

[2] = Average animal weight in MCF-7 mouse xenograft model; format: in vivo; details: nude mice with MCF-7 xenograft, i.p.; for Average Weight of Animals in Grams after Days 0: day 0; for Average Weight of Animals in Grams after Days 2: day 2; for Average Weight of Animals in Grams after Days 4: day 4; for Average Weight of Animals in Grams after Days 6: day 6; for Average Weight of Animals in Grams after Days 8: day 8; for Average Weight of Animals in Grams after Days 10: day 10; for Average Weight of Animals in Grams after Days 12: day 12; for Average Weight of Animals in Grams after Days 14: day 14; for Average Weight of Animals in Grams after Days 16: day 16; for Average Weight of Animals in Grams after Days 18: day 18; for Average Weight of Animals in Grams after Days 20: day 20; for Average Weight of Animals in Grams after Days 22: day 22
Source text: “In this work, MCF-7 mouse xenograft model was used. The animal protocol was approved by the Institutional Animal Use Ethics and Care Committee of the University of Alabama at Birmingham (50-01-05-08B). Female athymic pathogen-free nude mice (nu/nu, 4–6 weeks) were purchased from Frederick Cancer Research and Development Center (Frederick, MD, USA). To establish MCF-7 human breast cancer xenografts, each of the female nude mice was first implanted with a 60-day (subcutaneously, s.c.) slow release estrogen pellet (SE-121, 1.7 mg […]/pellet; Innovative Research of America, Sarasota, FL, USA). After 24 h, grown cells were harvested, washed twice with serum-free medium, resuspended, and injected subcutaneously (5 million cells/0.2 mL) into the left inguinal area of the mice. During the experiment, animals were checked periodically and the percentages of tumor growth, as well as animal weights, were recorded. Every 48 h, the size of the tumor was recorded by measuring two perpendicular diameters of the tumor and tumor volume was calculated according to Wang et al. [46]”.
“Treated animals and control groups (7–10 mice/group) received different compounds and vehicles, respectively. The tested compounds were dissolved in PEG400:ethanol:saline (57.1:14.3:28.6, v/v/v), and injected intraperitoneal (i.p.) at doses of […], 3 d/wk for 3 weeks. The higher dose (10 µM/kg/d, 3 d/wk) inhibited MCF-7 xenograft tumor growth”.

| Compound | IC50 [1] [µM] | Average Weight of Animals in Grams after Days 0 [2] [Grams] | Average Weight of Animals in Grams after Days 2 [2] [Grams] | Average Weight of Animals in Grams after Days 4 [2] [Grams] | Average Weight of Animals in Grams after Days 6 [2] [Grams] | Average Weight of Animals in Grams after Days 8 [2] [Grams] | Average Weight of Animals in Grams after Days 10 [2] [Grams] | Average Weight of Animals in Grams after Days 12 [2] [Grams] | Average Weight of Animals in Grams after Days 14 [2] [Grams] | Average Weight of Animals in Grams after Days 16 [2] [Grams] | Average Weight of Animals in Grams after Days 18 [2] [Grams] | Average Weight of Animals in Grams after Days 20 [2] [Grams] | Average Weight of Animals in Grams after Days 22 [2] [Grams] | IC50 ([1]; Homo sapiens, MCF7) [µM] |
| --- | --- | --- | --- | --- | --- | --- | --- | --- | --- | --- | --- | --- | --- | --- |
| N.N.[Cl][Pt][Cl] [Cisplatin, reference compound] | 13.34 ± 0.11 | – | – | – | – | – | – | – | – | – | – | – | – | – |
| CCOC(=O)Cn1cnc2scc(-c3cccs3)c2c1=O [Compound 3, ethyl 2-(4-oxo-5-(thiophen-2-yl)thieno[2,3-d]pyrimidin-3(4H)-yl)acetate] | – | 28 | 28 | 28 | 28 | 28.2 | 27.9 | 27.8 | 27.7 | 27.7 | 27.6 | 27.7 | 27.7 | 5.98 ± 0.099 |
| O=c1oc(Cn2cnc3scc(-c4cccs4)c3c2=O)nc2ccccc12 [Compound 5, 2-((4-oxo-5-(thiophen-2-yl)thieno[2,3-d]pyrimidin-3(4H)-yl)methyl)-4H-benzo[d]-[1,3] oxazin-4-one] | – | 22.9 | 22.9 | 22.9 | 22.8 | 22.8 | 22.7 | 22.8 | 22.7 | 22.9 | 22.6 | 22.6 | 22.5 | 4.76 ± 0.087 |
| COc1cccc(C2SCC(=O)N2NC(=O)Cn2cnc3scc(-c4cccs4)c3c2=O)c1OC (stereo not drawn) [Compound 8, N-(2-(2,3-Dimethoxyphenyl)-4-oxothiazolidin-3-yl)-2-(4-oxo-5-(thiophen-2-yl)thieno[2,3-d]pyrimidin-3(4H)-yl)acetamide] | – | 25.3 | 25.3 | 25.2 | 25.2 | 25.2 | 25.1 | 25.1 | 24.8 | 24.7 | 24.6 | 24.5 | 24.2 | 1.26 ± 0.052 |
| O=C(Cn1cnc2scc(-c3cccs3)c2c1=O)NNC(=S)Nc1ccccc1 [Compound 10, 2-(2-(4-oxo-5-(thiophen-2-yl)thieno[2,3-d]pyrimidin-3(4H)-yl)acetyl)-N-phenylhydrazine-1-carbothioamide] | – | 24.9 | 24.9 | 24.9 | 24.9 | 24.8 | 24.8 | 24.8 | 24.4 | 24.4 | 24.4 | 24.4 | 24.4 | 3.55 ± 0.065 |
| O=C(Cn1cnc2scc(-c3cccs3)c2c1=O)NN1C(=O)CSC1=Nc1ccccc1 [Compound 11, N-(4-oxo-2-(phenylimino)thiazolidin-3-yl)-2-(4-oxo-5-(thiophen-2-yl)thieno[2,3-d]-pyrimidin-3(4H)-yl)acetamide] | – | 26.6 | 26.6 | 26.6 | 26.5 | 26.6 | 26.6 | 26.4 | 26.3 | 26.3 | 26.3 | 26.3 | – | 2.48 ± 0.054 |
| Cc1cc(=O)n(C(=O)Cn2cnc3scc(-c4cccs4)c3c2=O)[nH]1 [Compound 12, 3-(2-(3-methyl-5-oxo-2,5-dihydro-1H-pyrazol-1-yl)-2-oxoethyl)-5-(thiophen-2-yl)thieno-[2,3-d]pyrimidin-4(3H)-one] | – | 27.4 | 27.4 | 27.4 | 27.3 | 27.3 | 27.3 | 27.2 | 27.2 | 27.2 | 27.1 | 27.1 | 27.1 | 3.36 ± 0.063 |
| CC(=O)NNC(=O)Cn1cnc2scc(-c3cccs3)c2c1=O [Compound 13, N′-acetyl-2-(4-oxo-5-(thiophen-2-yl)thieno[2,3-d]pyrimidin-3(4H)-yl)aceto-hydrazide] | – | 25.4 | 25.4 | 25.4 | 25.4 | 25.4 | 25.3 | 25.3 | 25.3 | 25.3 | 25.3 | 25.3 | 25.3 | 3.64 ± 0.074 |
| Nc1cc(O)cc(=O)n1NC(=O)Cn1cnc2scc(-c3cccs3)c2c1=O [Compound 14, N-(6-Amino-4-hydroxy-2-oxopyridin-1(2H)-yl)-2-(4-oxo-5-(thiophen-2-yl)thieno[2,3-d]-pyrimidin-3(4H)-yl)acetamide] | – | 26.5 | 26.4 | 26.3 | 26.2 | 26.1 | 25.9 | 25.9 | 25.9 | 25.8 | 25.8 | 25.7 | 25.7 | 1.19 ± 0.042 |
| Milaplatin [reference compound] | 18.43 ± 0.13 | – | – | – | – | – | – | – | – | – | – | – | – | – |
